Reference: patent US20260306639A1, “DEGRADER FOR DECOMPOSING CMET PROTEIN, AND PHARMACEUTICAL COMPOSITION COMPRISING SAME” (INNOCURE THERAPEUTICS, INC., priority 2022, published 2026)

test system: c-MET; experiment: c-MET protein degradation (Simple Western), MKN-45 cells; assay type: cell-based, human; details: MKN-45 gastric cancer cells, c-MET overexpressing; 24 hours
Experimental: In order to assess the resolution of the compound of the present invention for c-MET expressed in cells, cells were dispensed in a 12-well plate at a concentration of 2×10^5 cells/well, and then gastric cancer cell lines were treated with samples for 24 hours and lung cancer cell lines were treated for 48 hours. Cell lysates were collected using a scraper on ice, centrifuged at 4° C. 15,000 rpm for 30 min to obtain a protein-containing supernatant. Protein expression was then measured using the Simple Western Automated Western Blot System Abby instrument using 3 μg of protein for each sample. SDS and heat-induced denaturation proteins were separated by molecular weight, attached to capillary, reacted with anti-c-MET or anti-GAPDH antibodies, which are primary antibodies, and then reacted with HRP-conjugated secondary antibodies, and analyzed the protein expression signal with compass software. Protein expression was normalized based on the expression value of GAPDH, and protein development in each sample was measured as a percentage (%) based on 100% of samples treated with 0.1% DMSO carriers, and DC50 (concentration of a compound where 50% protein inhibition is achieved) was calculated from the change in protein expression amount due to compound treatment.

| DC50 [nM] | Structure (SMILES) |
| --- | --- |
| < 100 | N#Cc1cccc(-c2ccc(=O)n(Cc3cccc(-c4ncc(OCC5CCN(C(=O)CCCN6CCN(c7ccc8c(=O)n(C9CCC(=O)NC9=O)ncc8c7)CC6)CC5)cn4)c3)n2)c1 (stereo not drawn) [ICT-0001200, 3-(1-{[3-(5-{[1-(4-{4-[2-(2,6-dioxopiperidine-3-yl)-1-oxo-1,2-dihydropthalazine-6-yl]piperazine-1-day}butanoyl)piperidine-4-il]methoxy}pyrimidine-2-yl)phenyl]methyl}6-oxo-1,6-dihydropyridazine-3-yl)benzonitrile] |
| > 1000 | Cn1cc(-c2cnc3c(nnn3C[C@@H]3CN(c4ncc(-c5ccc(CN6CCN(C(=O)COCCOCCOCCOCCNc7ccc8c(=O)n(C9CCC(=O)NC9=O)ncc8c7)CC6)cc5)cn4)CCO3)n2)cn1 (stereo partly drawn) [ICT-0000939, 3-[6-(15-{4-[(4-{2-[(2S)-2-{[5-(1-methyl-1H-pyrazole-4-yl)-1H-[1,2,3]triazolo[4,5-b]pyrazine-1-yl]methyl}morpholine-4-yl]pyrimidine-5-yl}phenyl)methyl]piperazine-1-yl}-15-oxo-4,7,10,13-tetraoxa-1-azpentadecane-1-yl)-1-oxo-1,2-dihydroptalazine-2-yl]piperidine-2,6-dione] |
| < 100 | N#Cc1cccc(-c2ccc(=O)n(Cc3cccc(-c4ncc(OCC5CCN(C(=O)CCN6CCN(c7ccc8c(=O)n(C9CCC(=O)NC9=O)ncc8c7)CC6)CC5)cn4)c3)n2)c1 (stereo not drawn) [ICT-0001199, 3-(1-{[3-(5-{[1-(3-{4-[2-(2,6-dioxopiperidin-3-yl)-1-oxo-1,2-dihydropthalazine-6-yl]piperazine-1-yl}propanoyl)piperidine-4-il]methoxy}pyrimidin-2-yl)phenyl]methyl}-6-oxo-1,6-dihydropyridazine-3-yl)benzonitrile] |
| < 100 | Cc1nn(C2CCC(=O)NC2=O)c(=O)c2ccc(N3CCN(CCC(=O)N4CCC(COc5cnc(-c6cccc(Cn7nc(-c8cccc(C#N)c8)ccc7=O)c6)nc5)CC4)CC3)cc12 (stereo not drawn) [ICT-0001174] |
| < 100 | Cc1nn(C2CCC(=O)NC2=O)c(=O)c2ccc(N3CCN(C(=O)CN4CCC(COc5cnc(-c6cccc(Cn7nc(-c8cccc(C#N)c8)ccc7=O)c6)nc5)CC4)CC3)cc12 (stereo not drawn) [ICT-0001177, 3-(1-{[3-(5-{[1-(2-{4-[2-(2,6-dioxopiperidin-3-yl)-4-methyl-1-oxo-1,2-dihydropthalazine-6-yl]piperazine-1-yl}-2-oxoethyl)piperidine-4-yl]methoxy}pyrimidine-2-yl)phenyl]methyl}-6-oxo-1,6-dihydropyridazine-3-yl)benzonitrile] |
| < 100 | Cc1nn(C2CCC(=O)NC2=O)c(=O)c2cc(N3CCN(c4ccc(NCC(=O)N5CCC(COc6cnc(-c7cccc(Cn8nc(-c9cccc(C#N)c9)ccc8=O)c7)nc6)CC5)cc4)CC3)ccc12 (stereo not drawn) [ICT-0001262, 3-(1-(3-(5-((1-((4-(4-(3-(2,6-dioxopiperidin-3-yl)-1-methyl-4-oxo-3,4-dihydropthalazine-6-yl)piperazine-1-yl)phenyl)glycy)piperidine-4-il)methoxy)pyrimidine-2-yl)benzyl)6-oxo-1,6-dihydropyridazine-3-yl)benzonitrile] |
| 100 to 1000 | Cc1nn(C2CCC(=O)NC2=O)c(=O)c2ccc(NCCCC(=O)N3CCC(COc4cnc(-c5cccc(Cn6nc(-c7cccc(C#N)c7)ccc6=O)c5)nc4)CC3)cc12 (stereo not drawn) [ICT-0000989] |
| < 100 | N#Cc1cccc(-c2ccc(=O)n(Cc3cccc(-c4ncc(OCC5CCN(CCCCC(=O)N6CCN(c7ccc8c(=O)n(C9CCC(=O)NC9=O)ncc8c7)CC6)CC5)cn4)c3)n2)c1 (stereo not drawn) [ICT-0001252] |
| < 100 | Cc1nn(C2CCC(=O)NC2=O)c(=O)c2cc(N3CCN(CCCCC(=O)N4CCC(COc5cnc(-c6cccc(Cn7nc(-c8cccc(C#N)c8)ccc7=O)c6)nc5)CC4)CC3)ccc12 (stereo not drawn) [ICT-0001217] |
| < 100 | Cc1nn(C2CCC(=O)NC2=O)c(=O)c2ccc(N3CCN(CCCC(=O)N4CCC(COc5cnc(-c6cccc(Cn7nc(-c8cccc(C#N)c8)ccc7=O)c6)nc5)CC4)CC3)cc12 (stereo not drawn) [ICT-0001175, 3-(1-(3-(5-((1-(4-(4-(2-(2,6-dioxopiperidine-3-yl)-4-methyl-1-oxo-1,2-dihydropthalazine-6-yl)piperazine-1-yl)butanoyl)piperidine-4-il)methoxy)pyrimidine-2-yl)benzyl)6-oxo-1,6-dihydropyridazine-3-yl)benzonitrile] |
| < 100 | Cc1nn(C2CCC(=O)NC2=O)c(=O)c2cc(F)c(N3CCN(CC4CCN(C(=O)CN5CCC(COc6cnc(-c7cccc(Cn8nc(-c9cccc(C#N)c9)ccc8=O)c7)nc6)CC5)CC4)CC3)cc12 (stereo not drawn) [ICT-0001204] |
| < 100 | Cc1nn(C2CCC(=O)NC2=O)c(=O)c2ccc(N3CCN(C[C@@H]4CN(C(=O)CN5CCC(COc6cnc(-c7cccc(Cn8nc(-c9cccc(C#N)c9)ccc8=O)c7)nc6)CC5)CCO4)CC3)cc12 (stereo partly drawn) [ICT-0001258] |
| < 100 | N#Cc1cccc(-c2ccc(=O)n(Cc3cccc(-c4ncc(OCC5CCN(C(=O)CCCCCCNc6ccc7c(=O)n(C8CCC(=O)NC8=O)ncc7c6)CC5)cn4)c3)n2)c1 (stereo not drawn) [ICT-0000985, 3-(1-{[3-(5-{[1-(7-{[2-(2,6-dioxopiperidin-3-yl)-1-oxo-1,2-dihydrophthalazine-6-yl]amino}heptanoyl)piperidine-4-il]methoxy}pyrimidine-2-yl)phenyl]methyl}-6-oxo-1,6-dihydropyridazine-3-yl)benzonitrile] |
| 100 to 1000 | Cc1nn(C2CCC(=O)NC2=O)c(=O)c2ccc(N3CCN(C(=O)CCCCN4CCC(COc5cnc(-c6cccc(Cn7nc(-c8cccc(C#N)c8)ccc7=O)c6)nc5)CC4)CC3)cc12 (stereo not drawn) [ICT-0001250] |
| < 100 | N#Cc1cccc(-c2ccc(=O)n(Cc3cccc(-c4ncc(OCC5CCN(CCC(=O)N6CCN(c7ccc8c(=O)n(C9CCC(=O)NC9=O)ncc8c7)CC6)CC5)cn4)c3)n2)c1 (stereo not drawn) [ICT-0001223] |
| < 100 | N#Cc1cccc(-c2ccc(=O)n(Cc3cccc(-c4ncc(OCC5CCN(CC(=O)N6CCN(c7ccc8c(=O)n(C9CCC(=O)NC9=O)ncc8c7)CC6)CC5)cn4)c3)n2)c1 (stereo not drawn) [ICT-0001221] |
| > 1000 | Cn1cc(-c2cnc3c(nnn3C[C@@H]3CN(c4ncc(-c5ccc(CN6CCN(C(=O)COCCOCCOCCNc7ccc8c(=O)n(C9CCC(=O)NC9=O)ncc8c7)CC6)cc5)cn4)CCO3)n2)cn1 (stereo partly drawn) [ICT-0000938, 3-[6-(12-{4-[(4-{2-[(2S)-2-{[5-(1-methyl-1H-pyrazole-4-yl)-1H-[1,2,3]triazolo[4,5-b]pyrazine-1-yl]methyl}morpholine-4-yl]pyrimidine-5-yl}phenyl)methyl]piperazine-1-yl}-12-oxo-4,7,10-trioxa-1-azadodecane-1-yl)-1-oxo-1,2-dihydroptalazine-2-yl]piperidine-2,6-dione] |
| < 100 | Cn1cc(-c2cnc3c(nnn3C[C@@H]3CN(c4ncc(-c5ccc(CN6CCN(C(=O)CCCCNc7cccc8cnn(C9CCC(=O)NC9=O)c(=O)c78)CC6)cc5)cn4)CCO3)n2)cn1 (stereo partly drawn) [ICT-0000959, 3-{8-[(5-{4-[(4-{2-[(2S)-2-{[5-(1-methyl-1H-pyrazole-4-yl)-1H-[1,2,3]triazolo[4,5-b]pyrazine-1-yl]methyl}morpholine-4-il]pyrimidine-5-yl}phenyl)methyl]piperazine-1-yl}-5-oxopentyl)amino]-1-oxo-1,2-dihydropthalazine-2-yl}piperidine-2,6-dione] |
| < 100 | N#Cc1cccc(-c2ccc(=O)n(Cc3cccc(-c4ncc(OCC5CCN(C(=O)CCCCN6CCN(c7ccc8c(=O)n(C9CCC(=O)NC9=O)ncc8c7)CC6)CC5)cn4)c3)n2)c1 (stereo not drawn) [ICT-0001201, 3-(1-{[3-(5-{[1-(5-{4-[2-(2,6-dioxopiperidin-3-yl)-1-oxo-1,2-dihydropetalazine-6-yl]piperazine-1-yl}pentanoyl)piperidine-4-il]methoxy}pyrimidine-2-yl)phenyl]methyl}6-oxo-1,6-dihydropyridazine-3-yl)benzonitrile] |
| > 1000 | Cc1nn(C2CCC(=O)NC2=O)c(=O)c2cc(N3CCC(CN4CCN(C(=O)CN5CCC(COc6cnc(-c7cccc(Cn8nc(-c9cccc(C#N)c9)ccc8=O)c7)nc6)CC5)CC4)CC3)ccc12 (stereo not drawn) [ICT-0001234] |
| 100 to 1000 | Cc1nn(C2CCC(=O)NC2=O)c(=O)c2ccc(N3CCN(c4ccc(NCC(=O)N5CCC(COc6cnc(-c7cccc(Cn8nc(-c9cccc(C#N)c9)ccc8=O)c7)nc6)CC5)cc4)CC3)cc12 (stereo not drawn) [ICT-0001240, 3-(1-(3-(5-((1-((4-(4-(2-(2,6-dioxopiperidin-3-yl)-4-methyl-1-oxo-1,2-dihydropthalazine-6-yl)piperazine-1-yl)phenyl)glycyl)piperidine-4-il)methoxy)pyrimidine-2-yl)benzyl)6-oxo-1,6-dihydropyridazine-3-yl)benzonitrile] |
| < 100 | Cn1cc(-c2cnc3c(nnn3C[C@@H]3CN(c4ncc(-c5ccc(CN6CCN(C(=O)CCCNc7ccc8c(=O)n(C9CCC(=O)NC9=O)ncc8c7)CC6)cc5)cn4)CCO3)n2)cn1 (stereo partly drawn) [ICT-0000922, 3-{6-[(4-{4-[(4-{2-[(2S)-2-{[5-(1-methyl-1H-pyrazole-4-yl)-1H-[1,2,3]triazolo[4,5-b]pyrazine-1-yl]methyl}morpholine-4-il]pyrimidine-5-yl}phenyl)methyl]piperazine-1-yl}-4-oxobutyl)amino]-1-oxo-1,2-dihydroptalazine-2-yl}piperidine-2,6-dione] |
| < 100 | Cn1cc(-c2cnc3c(nnn3C[C@@H]3CN(c4ncc(-c5ccc(CN6CCN(C(=O)CN7CCN(c8ccc9c(=O)n(C%10CCC(=O)NC%10=O)ncc9c8)CC7)CC6)cc5)cn4)CCO3)n2)cn1 (stereo partly drawn) [ICT-0001109] |

| Structure (SMILES) | DC50 [nM] |
| --- | --- |
| Cc1nn(C2CCC(=O)NC2=O)c(=O)c2ccc(N3CCN(CC4CCN(CC(=O)N5CCC(COc6cnc(-c7cccc(Cn8nc(-c9cccc(C#N)c9)ccc8=O)c7)nc6)CC5)CC4)CC3)cc12 (stereo not drawn) [ICT-0001256] | < 100 |
